Measurements: the supplement of paper PMC10307832

Assays:
Test in all cases: relative viability (nuclei count vs DMSO), 5 days (fraction); higher = more cells survive
JZL-184 + Trametinib = compound: C1CN(CCC1C(C2=CC3=C(C=C2)OCO3)(C4=CC5=C(C=C4)OCO5)O)C(=O)OC6=CC=C(C=C6)[N+](=O)[O-] [JZL-184] + CC(=O)Nc1cccc(-n2c(=O)n(C3CC3)c(=O)c3c(Nc4ccc(I)cc4F)n(C)c(=O)c(C)c32)c1 [Trametinib] (partner 0.02 µM)
Summary of the method: (§1)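 Five library-drug doses in √10 steps were combined with a fixed anchor-drug dose, or a single drug was given alone, by pin tool to lung cancer cell lines in 1536-well plates the day after seeding. Nuclei were stained and counted after 5 days. Relative viability is the nuclei count in treated wells over that in vehicle wells, taken as the median of duplicate plates.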

JZL-184 + Palbociclib = compound: C1CN(CCC1C(C2=CC3=C(C=C2)OCO3)(C4=CC5=C(C=C4)OCO5)O)C(=O)OC6=CC=C(C=C6)[N+](=O)[O-] [JZL-184] + CC(=O)c1c(C)c2cnc(Nc3ccc(N4CCNCC4)cn3)nc2n(C2CCCC2)c1=O [Palbociclib] (partner 0.5 µM)
Summary of the method: as §1

JZL-184 + Tozasertib = compound: C1CN(CCC1C(C2=CC3=C(C=C2)OCO3)(C4=CC5=C(C=C4)OCO5)O)C(=O)OC6=CC=C(C=C6)[N+](=O)[O-] [JZL-184] + Cc1cc(Nc2cc(N3CCN(C)CC3)nc(Sc3ccc(NC(=O)C4CC4)cc3)n2)n[nH]1 [Tozasertib] (partner 0.1 µM)
Summary of the method: as §1

JZL-184 + Dasatinib = compound: C1CN(CCC1C(C2=CC3=C(C=C2)OCO3)(C4=CC5=C(C=C4)OCO5)O)C(=O)OC6=CC=C(C=C6)[N+](=O)[O-] [JZL-184] + Cc1nc(Nc2ncc(C(=O)Nc3c(C)cccc3Cl)s2)cc(N2CCN(CCO)CC2)n1 [Dasatinib] (partner 0.075 µM)
Summary of the method: as §1

JZL-184 + AZD7762 = compound: C1CN(CCC1C(C2=CC3=C(C=C2)OCO3)(C4=CC5=C(C=C4)OCO5)O)C(=O)OC6=CC=C(C=C6)[N+](=O)[O-] [JZL-184] + NC(=O)Nc1cc(-c2cccc(F)c2)sc1C(=O)N[C@H]1CCCNC1 [AZD7762] (partner 0.2 µM)
Summary of the method: as §1

Cell Line | relative viability (JZL-184 + Trametinib; first compound 0.04 µM) | relative viability (JZL-184 + Trametinib; first compound 0.4 µM) | relative viability (JZL-184 + Trametinib; first compound 1.265 µM) | relative viability (JZL-184 + Trametinib; first compound 4 µM) | relative viability (JZL-184 + Palbociclib; first compound 0.04 µM) | relative viability (JZL-184 + Palbociclib; first compound 0.4 µM) | relative viability (JZL-184 + Palbociclib; first compound 1.265 µM) | relative viability (JZL-184 + Palbociclib; first compound 4 µM) | relative viability (JZL-184 + Tozasertib; first compound 0.04 µM) | relative viability (JZL-184 + Tozasertib; first compound 0.4 µM) | relative viability (JZL-184 + Tozasertib; first compound 1.265 µM) | relative viability (JZL-184 + Tozasertib; first compound 4 µM) | relative viability (JZL-184 + Dasatinib; first compound 0.04 µM) | relative viability (JZL-184 + Dasatinib; first compound 0.4 µM) | relative viability (JZL-184 + Dasatinib; first compound 1.265 µM) | relative viability (JZL-184 + Dasatinib; first compound 4 µM) | relative viability (JZL-184 + AZD7762; first compound 0.04 µM) | relative viability (JZL-184 + AZD7762; first compound 0.4 µM) | relative viability (JZL-184 + AZD7762; first compound 1.265 µM) | relative viability (JZL-184 + AZD7762; first compound 4 µM)
NCI-H460 | 0.22 | 0.145 | 0.213 | 0.099 | 0.147 | 0.0967 | 0.149 | 0.201 | 0.428 | 0.604 | 0.571 | 0.275 | 0.62 | 0.394 | 0.553 | 0.503 | 0.639 | 0.617 | 0.659 | 0.599
EKVX | 0.322 | 0.348 | 0.364 | 0.359 | 0.436 | 0.331 | 0.323 | 0.371 | 0.39 | 0.408 | 0.423 | 0.351 | 0.474 | 0.536 | 0.576 | 0.581 | 0.732 | 0.688 | 0.793 | 0.645
NCI-H1755 | 0.748 | 0.747 | 0.802 | 0.77 | 0.44 | 0.451 | 0.473 | 0.452 | 0.545 | 0.575 | 0.601 | 0.453 | 0.445 | 0.428 | 0.406 | 0.396 | 0.397 | 0.379 | 0.456 | 0.433
NCI-H1395 | 1.09 | 0.996 | 1.01 | 0.875 | 0.661 | 0.598 | 0.63 | 0.573 | 0.684 | 0.738 | 0.827 | 0.748 | 0.424 | 0.435 | 0.414 | 0.404 | 0.429 | 0.413 | 0.396 | 0.403
NCI-H2087 | 0.181 | 0.173 | 0.182 | 0.188 | 0.231 | 0.215 | 0.259 | 0.227 | 0.23 | 0.229 | 0.268 | 0.244 | 0.905 | 0.905 | 0.716 | 0.875 | 1.33 | 1.2 | 1.26 | 1.34
H3255 | 0.71 | 0.581 | 0.684 | 0.549 | 0.353 | 0.322 | 0.343 | 0.323 | 0.613 | 0.65 | 0.747 | 0.623 | 0.353 | 0.346 | 0.288 | 0.38 | 0.945 | 0.743 | 0.948 | 0.86
NCI-H23 | 0.409 | – | 0.358 | 0.392 | 0.594 | – | 0.484 | 0.486 | 0.375 | 0.307 | 0.414 | 0.316 | 0.896 | 0.81 | 0.864 | 0.751 | 0.203 | – | 0.25 | 0.283
HCC-827 | 0.536 | 0.55 | 0.583 | 0.515 | 0.52 | 0.441 | 0.555 | 0.48 | 0.421 | 0.383 | 0.449 | 0.411 | 0.328 | 0.31 | 0.34 | 0.305 | 0.147 | 0.182 | 0.19 | 0.206
HCC-78 | 0.705 | – | 0.912 | 0.565 | 0.425 | 0.425 | 0.452 | 0.471 | 0.402 | 0.413 | 0.388 | 0.318 | 0.276 | 0.359 | 0.391 | 0.301 | 0.594 | – | 0.688 | 0.618
NCI-H1975 | 0.314 | 0.33 | 0.349 | 0.33 | 0.679 | 0.579 | 0.614 | 0.575 | 0.757 | 0.686 | 0.869 | 0.634 | 0.427 | 0.356 | 0.347 | 0.31 | 0.723 | 0.664 | 0.804 | 0.583
CAL-12T | 0.341 | 0.356 | 0.352 | 0.341 | 0.692 | 0.314 | 0.508 | 0.576 | 0.336 | 0.269 | 0.336 | 0.228 | 0.515 | 0.254 | 0.488 | 0.341 | 0.712 | 0.531 | 0.7 | 0.613
NCI-H2126 | 0.506 | 0.603 | 0.602 | 0.503 | 0.329 | 0.357 | 0.359 | 0.345 | 0.89 | 0.749 | 0.883 | 0.767 | 0.612 | 0.639 | 0.607 | 0.612 | 1.06 | 1.01 | 1.02 | 0.996
